This note sets out measurements from patent EP0501713B1, “Optically active aminoketone derivative and method for preparing same” (MITSUI TOATSU CHEMICALS, Inc., priority 1991, dated 1992).

The term LD50 denotes the dose at which mortality reaches 50%. Higher therefore signals lower toxicity.

In data set [1] the test system is skeletal muscle afferent discharge. As to the kind of experiment: Action to skeletal muscle afferent discharge (musculus triceps surae nerve fiber). Format: in vivo, Wistar rats. The following applies: i.v., rat, discharge frequency before administration = 100%, tension of 20 g. An excerpt:
The musculus triceps surae was separated from each of Wistar rats (9 to 10 weeks old; Japanese rats) under a mixed anesthetic of urethane and α-chlorarose. There were cut out all the branches of the sciatic nerve except the branch which controls the musculus triceps surae. The medulla spinalis was subjected to laminectomy, and roots of L6 or less were cut out. […] A nerve fiber coming from the musculus triceps surae was only separated from the L5 posterior root. A tension of 20 g was applied to the peripheral end of the musculus triceps surae, and each discharge frequency of the nerve was recorded. Assuming that the discharge frequency before the administration is 100%, the discharge frequency of the nerve was expressed in terms of percentage: (100 -(Discharge frequency at most inhibition)/(Discharge frequency before administration)× 100) [formula]
The test compounds were intravenously administered at 6 and 12 mg/kg.

Another data set is described as follows: Acute toxicity. Format: in vivo. The following applies: mouse, in vivo, ip, intraperitoneally administered; mice observed 72 hours later. As for the experimental part:
(§1) ddy Male mice (body weights: 25-30 g) were used. Each test compound was intraperitoneally administered, and 72 hours later, the mice were observed as to whether they were alive or dead.
(§2) 50% lethal doses LD50 (mg/kg) were calculated.

Data set [2] concerns decerebrate rigidity induced by radio frequency lesions of rat brains. Nature of the data set: Decerebrate rigidity remission action (method of Ono et al.). It counts as in vivo, Wistar male rat. The following applies: i.v., tension before administration = 100%. An excerpt:
Pharmacol., 18, 57 (1987)], the rigidity remission action of the optically active aminoketone derivative of the present invention for the decerebrate rigidity induced by radio frequency lesions of rat brains was investigated.
Each Wistar male rat (body weight: 300-400 g) was anesthetized with ether and then fixed on a stereotaxic apparatus. In accordance with the Pellegrino's stereotaxic brain atlas, the electrodes of a lesion generator (manufactured by Radionics Company) were punctuated to AP: 0, L: ±1.5, V: -3. […] The rigidified rat was fixed in the abdominal position, and the tension of each extension reflex of the extensor of the hind limbs was recorded. Assuming that the tension before the administration was 100%, the rate of rigidity inhibition is expressed in terms of percentage: (100 -(Tension after administration)/(Tension before administration)× 100) [formula]
The test compounds were intravenously administered at 3 and 6 mg/kg.

A further data set relates to ddy Male mice. Nature of the data set: Acute toxicity. Format: in vivo. Conditions: intraperitoneally administered; mice observed 72 hours later; 4320 min. The protocol:
as §1, §2

Turning to `CCC(CN1CCCC1)C(=O)c1cc(-c2ccccc2)no1` (racemic) [racemic form, 3-phenyl-5-[2-(1-pyrrolidinylmethyl)butyryl]isoxazole, reference compound], the “Discharge Frequency (%)” value in data set [1] (6 mg/kg) was determined as 46%; in data set [1] (12 mg/kg), 27%. The median lethal dose (LD50) at 72 h in “Acute toxicity” was 445 mg/kg. Also, the results for the “Rigidity Inhibition (%)” value in data set [2] (3 mg/kg) and in data set [2] (6 mg/kg) were 56% and 65%, respectively.

Turning to `CCC(CN1CCCC1)C(=O)c1cc(-c2ccccc2)no1` (single isomer, unassigned; (-)) [(-) form, (-)-3-phenyl-5-[2-(1-pyrrolidinylmethyl)butyryl]isoxazole], in data set [1] (6 mg/kg), the “Discharge Frequency (%)” value is recorded as 83%. Besides, in the data set on ddy Male mice, the “LD50” value is listed as 760 mg/kg. For the same compound, the “Rigidity Inhibition (%)” value in data set [2] (3 mg/kg) was found to be 33%; in data set [2] (6 mg/kg), 53%.

For `CCC(CN1CCCC1)C(=O)c1cc(-c2ccccc2)no1` (single isomer, unassigned; (+)) [(+) form, (+)-3-phenyl-5-[2-(1-pyrrolidinylmethyl)butyryl]isoxazole], the “Discharge Frequency (%)” value in data set [1] (6 mg/kg) is recorded as 28%; in data set [1] (12 mg/kg), 14%. In the data set “Acute toxicity”, this compound came in with an LD50 at 72 h of 386 mg/kg. The entries for the “Rigidity Inhibition (%)” value in data set [2] (3 mg/kg) and in data set [2] (6 mg/kg) were 59% and 78%, respectively.
